Laboratory results reported in patent US8192962B2, “Processes for detecting toxic substances” (Daikin Industries, Ltd., priority 2001, dated 2012).

Tested on: Metabolism protein genes
Assay: DNA chip mRNA expression in yeast, metabolism protein genes (Table 7)
Assay type: cell-based, Saccharomyces cerevisiae S288C
Method in brief: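 Ratios compare mRNA levels in stressed and control S. cerevisiae. Each toxicant was applied for two hours to log-phase cultures at 25° C. at a sub-lethal, growth-inhibiting level; fluorescent cDNA (Cy3- or Cy5-dUTP) was hybridized to a genome-wide yeast chip for over 12 h at 65° C.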

For `N#Cc1c(Cl)c(Cl)c(Cl)c(C#N)c1Cl` [(9), 2,4,5,6-tetrachloro-1,3-benzenedicarbonitrile], the “The level of expressed mRNA in the presence of chemical substance/The level of expressed mRNA in the absence of chemical substance” value (yeast gene YER178W) was 1.7, the “level of expressed mRNA in the presence/in the absence of chemical substance” value (yeast gene YFL011W) was 0.3 and the “The level of expressed mRNA in the presence of chemical substance/The level of expressed mRNA in the absence of chemical substance” value (yeast gene YFL014W) was 13.1. The “The level of expressed mRNA in the presence of chemical substance/The level of expressed mRNA in the absence of chemical substance” value (yeast gene YFL030W) was 24.5, the “The level of expressed mRNA in the presence of chemical substance/The level of expressed mRNA in the absence of chemical substance” value (yeast gene YFL031W) was 1.0 and the “The level of expressed mRNA in the presence of chemical substance/The level of expressed mRNA in the absence of chemical substance” value (yeast gene YFL056C) was 162.3. The “The level of expressed mRNA in the presence of chemical substance/The level of expressed mRNA in the absence of chemical substance” value (yeast gene YFL057C) was 51.8, the “The level of expressed mRNA in the presence of chemical substance/The level of expressed mRNA in the absence of chemical substance” value (yeast gene YFR047C) was 3.0 and the “level of expressed mRNA in the presence/in the absence of chemical substance” value (yeast gene YGL012W) was 0.3. For the same compound, the “The level of expressed mRNA in the presence of chemical substance/The level of expressed mRNA in the absence of chemical substance” value (yeast gene YGL022W) was 0.9, the “The level of expressed mRNA in the presence of chemical substance/The level of expressed mRNA in the absence of chemical substance” value (yeast gene YGL026C) was 3.7 and the “level of expressed mRNA in the presence/in the absence of chemical substance” value (yeast gene YGL115W) was 1.2. For the same compound, the “The level of expressed mRNA in the presence of chemical substance/The level of expressed mRNA in the absence of chemical substance” value (yeast gene YGL126W) was 1.6, the “The level of expressed mRNA in the presence of chemical substance/The level of expressed mRNA in the absence of chemical substance” value (yeast gene YGL202W) was 1.3 and the “The level of expressed mRNA in the presence of chemical substance/The level of expressed mRNA in the absence of chemical substance” value (yeast gene YGL209W) was 0.6. For the same compound, the “The level of expressed mRNA in the presence of chemical substance/The level of expressed mRNA in the absence of chemical substance” value (yeast gene YGL248W) was 0.2, the “The level of expressed mRNA in the presence of chemical substance/The level of expressed mRNA in the absence of chemical substance” value (yeast gene YGL252C) was 2.7 and the “The level of expressed mRNA in the presence of chemical substance/The level of expressed mRNA in the absence of chemical substance” value (yeast gene YGL254W) was 3.1. The “The level of expressed mRNA in the presence of chemical substance/The level of expressed mRNA in the absence of chemical substance” value (yeast gene YGR037C) was 1.7, the “The level of expressed mRNA in the presence of chemical substance/The level of expressed mRNA in the absence of chemical substance” value (yeast gene YGR055W) was 5.0 and the “level of expressed mRNA in the presence/in the absence of chemical substance” value (yeast gene YGR096W) was 0.8. The “level of expressed mRNA in the presence/in the absence of chemical substance” value (yeast gene YGR191W) was 0.1, the “The level of expressed mRNA in the presence of chemical substance/The level of expressed mRNA in the absence of chemical substance” value (yeast gene YGR194C) was 2.4 and the “level of expressed mRNA in the presence/in the absence of chemical substance” value (yeast gene YGR204W) was 0.9. For the same compound, the “The level of expressed mRNA in the presence of chemical substance/The level of expressed mRNA in the absence of chemical substance” value (yeast gene YGR256W) was 3.4, the “The level of expressed mRNA in the presence of chemical substance/The level of expressed mRNA in the absence of chemical substance” value (yeast gene YGR282C) was 0.8 and the “level of expressed mRNA in the presence/in the absence of chemical substance” value (yeast gene YGR288W) was 1.6. For the same compound, the “level of expressed mRNA in the presence/in the absence of chemical substance” value (yeast gene YHR025W) was 0.2, the “The level of expressed mRNA in the presence of chemical substance/The level of expressed mRNA in the absence of chemical substance” value (yeast gene YHR111W) was 4.5 and the “level of expressed mRNA in the presence/in the absence of chemical substance” value (yeast gene YHR123W) was 0.8. For the same compound, the “The level of expressed mRNA in the presence of chemical substance/The level of expressed mRNA in the absence of chemical substance” value (yeast gene YHR137W) was 0.2, the “The level of expressed mRNA in the presence of chemical substance/The level of expressed mRNA in the absence of chemical substance” value (yeast gene YHR174W) was 1.0 and the “The level of expressed mRNA in the presence of chemical substance/The level of expressed mRNA in the absence of chemical substance” value (yeast gene YHR176W) was 6.3. For the same compound, the “level of expressed mRNA in the presence/in the absence of chemical substance” value (yeast gene YIL006W) was 0.9, the “The level of expressed mRNA in the presence of chemical substance/The level of expressed mRNA in the absence of chemical substance” value (yeast gene YIL045W) was 2.1 and the “The level of expressed mRNA in the presence of chemical substance/The level of expressed mRNA in the absence of chemical substance” value (yeast gene YIL107C) was 3.5. The “The level of expressed mRNA in the presence of chemical substance/The level of expressed mRNA in the absence of chemical substance” value (yeast gene YIL154C) was 2.4, the “The level of expressed mRNA in the presence of chemical substance/The level of expressed mRNA in the absence of chemical substance” value (yeast gene YIL155C) was 2.5 and the “The level of expressed mRNA in the presence of chemical substance/The level of expressed mRNA in the absence of chemical substance” value (yeast gene YIL167W) was 6.9. For the same compound, the “The level of expressed mRNA in the presence of chemical substance/The level of expressed mRNA in the absence of chemical substance” value (yeast gene YIL168W) was 7.8, the “The level of expressed mRNA in the presence of chemical substance/The level of expressed mRNA in the absence of chemical substance” value (yeast gene YIR031C) was 2.6 and the “The level of expressed mRNA in the presence of chemical substance/The level of expressed mRNA in the absence of chemical substance” value (yeast gene YIR032C) was 2.6. For the same compound, the “The level of expressed mRNA in the presence of chemical substance/The level of expressed mRNA in the absence of chemical substance” value (yeast gene YIR034C) was 3.2, the “The level of expressed mRNA in the presence of chemical substance/The level of expressed mRNA in the absence of chemical substance” value (yeast gene YIR036C) was 3.3 and the “The level of expressed mRNA in the presence of chemical substance/The level of expressed mRNA in the absence of chemical substance” value (yeast gene YJL031C) was 4.7. The “The level of expressed mRNA in the presence of chemical substance/The level of expressed mRNA in the absence of chemical substance” value (yeast gene YJL045W) was 9.7, the “The level of expressed mRNA in the presence of chemical substance/The level of expressed mRNA in the absence of chemical substance” value (yeast gene YJL060W) was 5.3 and the “The level of expressed mRNA in the presence of chemical substance/The level of expressed mRNA in the absence of chemical substance” value (yeast gene YJL068C) was 6.5. The “The level of expressed mRNA in the presence of chemical substance/The level of expressed mRNA in the absence of chemical substance” value (yeast gene YJL088W) was 3.2 and the “The level of expressed mRNA in the presence of chemical substance/The level of expressed mRNA in the absence of chemical substance” value (yeast gene YJL099W) was 3.1.
